ChEMBL document CHEMBL1201862, “PubChem BioAssay data set” (2004)
The source made the active and inactive calls.

Legend:
[1] = target: RNA-editing ligase 1, mitochondrial (Trypanosoma brucei brucei, UniProt P86926); assay: TbREL1 ligase inhibitors, dose response, biochemical, fluorescence, Trypanosoma brucei (AID 1117295); type: functional
[2] = target: T1, Histone-lysine N-methyltransferase NSD2 (Homo sapiens, UniProt O96028); type: biochemical
T1 sequence (O96028 whole entry): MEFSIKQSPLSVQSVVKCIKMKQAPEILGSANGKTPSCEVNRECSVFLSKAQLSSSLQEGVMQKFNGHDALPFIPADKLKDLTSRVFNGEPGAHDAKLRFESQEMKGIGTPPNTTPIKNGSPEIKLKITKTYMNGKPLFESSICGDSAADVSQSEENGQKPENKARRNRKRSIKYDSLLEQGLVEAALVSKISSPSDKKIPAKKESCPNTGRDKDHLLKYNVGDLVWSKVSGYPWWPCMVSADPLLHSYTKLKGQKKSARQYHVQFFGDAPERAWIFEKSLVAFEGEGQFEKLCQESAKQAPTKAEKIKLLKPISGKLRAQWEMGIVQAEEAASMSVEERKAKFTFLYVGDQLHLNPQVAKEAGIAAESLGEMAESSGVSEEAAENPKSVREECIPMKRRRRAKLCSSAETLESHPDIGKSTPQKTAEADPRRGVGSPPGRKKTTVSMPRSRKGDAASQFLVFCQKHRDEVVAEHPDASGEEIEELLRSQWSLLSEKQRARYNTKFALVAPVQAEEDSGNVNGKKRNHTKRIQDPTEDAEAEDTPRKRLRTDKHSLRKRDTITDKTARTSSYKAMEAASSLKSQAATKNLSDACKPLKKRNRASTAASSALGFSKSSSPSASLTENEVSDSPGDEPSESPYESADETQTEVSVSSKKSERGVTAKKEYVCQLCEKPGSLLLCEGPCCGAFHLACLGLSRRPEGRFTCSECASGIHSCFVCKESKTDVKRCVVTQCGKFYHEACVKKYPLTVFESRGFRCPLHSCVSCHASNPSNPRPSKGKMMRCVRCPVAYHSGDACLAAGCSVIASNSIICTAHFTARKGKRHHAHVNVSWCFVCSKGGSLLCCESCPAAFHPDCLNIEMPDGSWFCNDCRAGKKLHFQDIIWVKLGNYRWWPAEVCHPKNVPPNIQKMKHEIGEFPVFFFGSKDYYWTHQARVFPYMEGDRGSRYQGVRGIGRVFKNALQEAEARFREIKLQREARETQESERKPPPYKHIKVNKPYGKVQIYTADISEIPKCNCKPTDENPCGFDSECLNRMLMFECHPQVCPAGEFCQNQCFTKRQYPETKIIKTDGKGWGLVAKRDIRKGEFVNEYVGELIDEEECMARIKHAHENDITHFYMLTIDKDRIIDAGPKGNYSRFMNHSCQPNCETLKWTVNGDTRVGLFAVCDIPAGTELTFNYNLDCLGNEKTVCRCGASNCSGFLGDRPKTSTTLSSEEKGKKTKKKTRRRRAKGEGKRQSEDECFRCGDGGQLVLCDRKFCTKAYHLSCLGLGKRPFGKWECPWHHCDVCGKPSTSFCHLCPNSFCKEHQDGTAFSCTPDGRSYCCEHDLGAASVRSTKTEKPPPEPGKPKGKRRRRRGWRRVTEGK

Transthyretin = Transthyretin (Homo sapiens, UniProt P02766); assay: Luminescence-based cell-based high throughput dose response assay to identify activators of Transthyretin (TTR) transcription.; type: functional
[3] = HepG2 cell cytotoxicity, dose response, cytotoxicity control, plate reader, dry powder samples (AID 1159569); type: functional, cell-based;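 also: inhibitor potency with signal falling toward the positive control level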
[4] = HepG2 cell cytotoxicity, dose response, cytotoxicity control, plate reader, cherry-pick, antagonist series (AID 743416); type: functional, cell-based
[5] = P. falciparum 3D7-ScDHODH growth inhibitors, dose response, SYBR Green, dry powder samples (AID 1159570); type: functional, cell-based;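 also: parasite growth measured after 72 hours of compound exposure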
[6] = LGR2 antagonists, dose response, cell-based, HEK293, CRE-luciferase reporter, cherry pick, set 2 (AID 743343); type: functional;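 also: transfected cells were stimulated with diluted bursicon conditioned medium after compound addition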
[7] = P. falciparum Dd2 growth inhibitors, dose response, SYBR Green, cherry-picked samples (AID 1159567); type: functional, cell-based
[8] = MC4R antagonists, dose response, counter-screen for LGR2 antagonist project, cell-based, plate reader, cherry pick (AID 743444); type: functional;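 also: transfected HEK 293 cells stimulated with alpha-MSH peptide; potency of inhibitors of the alpha-MSH evoked signal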
[9] = A549 cell cytotoxicity, dose response, cytotoxicity control, plate reader, cherry-pick, antagonist series (AID 743412); type: functional, cell-based
[10] = P. falciparum Dd2 growth inhibitors, dose response, SYBR Green, dry powder samples (AID 1159566); type: functional, cell-based;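 also: potency for growth inhibition with lower SYBR green DNA signal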
[11] = P. falciparum ATP4 D1247Y mutant growth inhibitors, dose response, NITD609-resistant line, SYBR Green, dry powder (AID 1159571); type: functional, cell-based;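 also: parasites synchronized at ring stage by sorbitol before testing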
[12] = HEK293 cell cytotoxicity, dose response, cytotoxicity control, plate reader, cherry-picked samples (AID 743446); type: functional, cell-based
Ephrin type-A receptor 4 = Ephrin type-A receptor 4 (Mus musculus, UniProt Q03137); assay: inhibitors of EphA4 binding to KYL peptide, primary screen, biochemical, colorimetric, mouse EphA4 (AID 689); type: functional
Ephrin type-A receptor 4, sequence (Q03137 whole entry): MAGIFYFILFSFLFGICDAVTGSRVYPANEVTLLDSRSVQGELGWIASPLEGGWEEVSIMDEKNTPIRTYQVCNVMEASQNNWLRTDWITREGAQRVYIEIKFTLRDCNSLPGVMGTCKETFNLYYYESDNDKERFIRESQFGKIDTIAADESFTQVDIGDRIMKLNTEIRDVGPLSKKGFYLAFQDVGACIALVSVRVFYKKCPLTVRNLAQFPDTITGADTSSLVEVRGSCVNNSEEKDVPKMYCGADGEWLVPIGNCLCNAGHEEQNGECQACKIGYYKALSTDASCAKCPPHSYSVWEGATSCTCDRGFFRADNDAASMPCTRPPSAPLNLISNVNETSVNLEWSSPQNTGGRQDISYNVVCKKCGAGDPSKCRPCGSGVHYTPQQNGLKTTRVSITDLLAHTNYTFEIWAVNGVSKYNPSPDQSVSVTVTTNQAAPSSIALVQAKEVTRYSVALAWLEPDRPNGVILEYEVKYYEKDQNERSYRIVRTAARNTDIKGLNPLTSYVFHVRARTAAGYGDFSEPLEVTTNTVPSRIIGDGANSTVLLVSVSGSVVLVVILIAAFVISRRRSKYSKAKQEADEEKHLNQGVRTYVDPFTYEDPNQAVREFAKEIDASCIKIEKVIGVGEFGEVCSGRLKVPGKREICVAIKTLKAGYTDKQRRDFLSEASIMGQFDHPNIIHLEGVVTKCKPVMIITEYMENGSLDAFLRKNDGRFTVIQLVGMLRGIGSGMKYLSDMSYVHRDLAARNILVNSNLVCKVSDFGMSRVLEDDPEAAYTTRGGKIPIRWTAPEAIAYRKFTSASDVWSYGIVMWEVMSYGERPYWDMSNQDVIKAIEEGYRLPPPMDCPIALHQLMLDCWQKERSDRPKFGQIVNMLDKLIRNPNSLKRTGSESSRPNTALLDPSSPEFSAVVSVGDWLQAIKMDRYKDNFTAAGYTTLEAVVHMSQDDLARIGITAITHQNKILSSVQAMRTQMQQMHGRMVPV

[13] = HepG2 cell cytotoxicity, dose response, cytotoxicity control, cherry-picked samples (AID 1159577); type: functional, cell-based

RNA-editing ligase 1, mitochondrial, sequence (P86926 whole entry): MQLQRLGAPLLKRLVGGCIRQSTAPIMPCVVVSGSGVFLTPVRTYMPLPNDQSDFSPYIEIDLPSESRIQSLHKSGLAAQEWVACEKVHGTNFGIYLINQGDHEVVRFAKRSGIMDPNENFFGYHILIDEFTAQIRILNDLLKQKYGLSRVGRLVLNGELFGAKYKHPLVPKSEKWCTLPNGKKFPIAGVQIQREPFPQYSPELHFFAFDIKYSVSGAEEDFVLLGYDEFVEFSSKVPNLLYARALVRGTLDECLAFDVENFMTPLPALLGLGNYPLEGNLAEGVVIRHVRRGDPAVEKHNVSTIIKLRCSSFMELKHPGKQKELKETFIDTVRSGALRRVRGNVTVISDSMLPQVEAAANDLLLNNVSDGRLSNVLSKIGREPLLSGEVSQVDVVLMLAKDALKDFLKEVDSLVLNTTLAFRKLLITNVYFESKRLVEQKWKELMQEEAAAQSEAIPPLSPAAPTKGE

## NC(=O)[C@H]1CC2(CC(c3cccc(NC(=O)[C@H]4CCC(=O)N4)c3)=NO2)CN1C(=O)c1ccccc1 (stereo partly drawn)
[1]
  IC50: 19.7 µM (inactive)

## CCCC(=O)NC1=C(N2CC2)C(=O)C(NC(=O)CCC)=C(N2CC2)C1=O
[2]
  AC50: 6.65 µM (active)
Transthyretin
  EC50: > 167 µM (inactive)

## N#Cc1ccc(-c2ccc([C@@H]3[C@@H]4CN(C(=O)C5CCC5)C[C@H]3N4)cc2)cc1
[3]
  AC50: > 100 µM (inactive)
[4]
  AC50: 22.7 µM (active)
[5]
  AC50: 1.19 µM (active)
[6]
  AC50: 5.97 µM (active)
[7]
  AC50: 0.825 µM (active)
[8]
  AC50: 7.86 µM (active)
[9]
  AC50: 7.74 µM (active)
[10]
  AC50: 1.04 µM (active)
[11]
  AC50: 1.35 µM (active)
[12]
  AC50: > 52 µM (inactive)

## Cc1c(NC(=S)N/N=C/c2cccc(O)c2)c(=O)n(-c2ccccc2)n1C
Ephrin type-A receptor 4
  IC50: 39.5 µM (active)

## COc1ccccc1S(=O)(=O)N(C)C[C@@H]1OCc2ccccc2-c2c(n(C)c3ccccc23)C(=O)N([C@H](C)CO)C[C@@H]1C
[3]
  AC50: 89.2 µM (active)
[5]
  AC50: 0.561 µM (active)
[7]
  AC50: 0.729 µM (active)
[13]
  AC50: 36.7 µM (active)
[10]
  AC50: 0.423 µM (active)
[11]
  AC50: 0.548 µM (active)

## COc1ccc(S(=O)(=O)N2CCCCN3[C@@H](CO)[C@@H](c4ccc(C5=CCCCC5)cc4)[C@@H]3C2)cc1
[7]
  AC50: 0.972 µM (active)
[13]
  AC50: 10.2 µM (active)

## COC(=O)C1=C(C)N(Cc2ccccc2C(F)(F)F)C(NCc2ccccc2)=NC1CCc1ccccc1 (stereo not drawn)
[1]
  IC50: > 96.6 µM (inactive)
